Experimental data from ChEMBL document CHEMBL3885861, “Open TG-GATES”.

Organism: Rattus norvegicus
Assay: Open TG-GATES - Regimen: Single
Assay type: toxicity, organism-based, Sprague-Dawley
Set-up: regimen Single, gender Male, age 6 weeks
Conditions: in vivo, po, 0 mg/kg, route gavage, dose level Control; for APTT / Bas / Eos / Fbg / Hb / Ht / Lym / MCH / MCHC / MCV / Mono / Neu / PT / Plat / RBC / Ret / WBC: tissue Blood; for KIDNEY_L / KIDNEY_R / KIDNEY_TOTAL: tissue Kidney; for LIVER: tissue Liver; for A/G / ALP / ALT / AST / BUN / CRE / Ca / Cl / DBIL / GLC / IP / K / LDH / Na / PL / RALB / TBIL / TC / TG / TP / gamma-GTP: tissue Plasma

CC1=C(CC(=O)O)c2cc(F)ccc2/C1=C\c1ccc([S+](C)[O-])cc1 (configuration not stated)
TERMINAL_BW (3 h): 203.6 g
APTT (3 h): 20.8 s
Bas (3 h): 0.2%
Eos (3 h): 0.8%
Fbg (3 h): 275 mg/dL
Hb (3 h): 13.9 g/dL
Ht (3 h): 42%
Lym (3 h): 77.4%
MCH (3 h): 21.5 pg
MCHC (3 h): 33.1%
MCV (3 h): 65.1 fL
Mono (3 h): 2.8%
Neu (3 h): 18.6%
PT (3 h): 14.2 s
Plat (3 h): 116.8 x10_4/uL
RBC (3 h): 645.6 x10_4/ul
Ret (3 h): 7.9%
WBC (3 h): 80.3 x10_2/uL
KIDNEY_L (3 h): 0.8 g
KIDNEY_R (3 h): 0.9 g
KIDNEY_TOTAL (3 h): 1.7 g
LIVER (3 h): 9.3 g
A/G (3 h): 0.9
ALP (3 h): 1495.6 IU/L
ALT (3 h): 41.6 IU/L
AST (3 h): 79.8 IU/L
BUN (3 h): 10.4 mg/dL
CRE (3 h): 0.2 mg/dL
Ca (3 h): 10.9 mg/dL
Cl (3 h): 105.4 meq/L
DBIL (3 h): 0.01 mg/dL
GLC (3 h): 168 mg/dL
IP (3 h): 8.7 mg/dL
K (3 h): 3.9 meq/L
LDH (3 h): 79.6 IU/L
Na (3 h): 142.4 meq/L
PL (3 h): 150.6 mg/dL
RALB (3 h): 2.6 g/dL
TBIL (3 h): 0.024 mg/dL
TC (3 h): 80.8 mg/dL
TG (3 h): 65.4 mg/dL
TP (3 h): 5.4 g/dL
gamma-GTP (3 h): 1 IU/L
TERMINAL_BW (6 h): 197.1 g
APTT (6 h): 17.8 s
Bas (6 h): 0%
Eos (6 h): 1%
Fbg (6 h): 281.8 mg/dL
Hb (6 h): 13.8 g/dL
Ht (6 h): 42.2%
Lym (6 h): 78.6%
MCH (6 h): 20.7 pg
MCHC (6 h): 32.8%
MCV (6 h): 62.9 fL
Mono (6 h): 2.8%
Neu (6 h): 17%
PT (6 h): 14.2 s
Plat (6 h): 121.9 x10_4/uL
RBC (6 h): 670.4 x10_4/ul
Ret (6 h): 7.7%
WBC (6 h): 78.4 x10_2/uL
KIDNEY_L (6 h): 0.8 g
KIDNEY_R (6 h): 0.9 g
KIDNEY_TOTAL (6 h): 1.7 g
LIVER (6 h): 8 g
A/G (6 h): 0.9
ALP (6 h): 1387.6 IU/L
ALT (6 h): 38.2 IU/L
AST (6 h): 72 IU/L
BUN (6 h): 7.4 mg/dL
CRE (6 h): 0.2 mg/dL
Ca (6 h): 10.6 mg/dL
Cl (6 h): 106.4 meq/L
DBIL (6 h): 0.002 mg/dL
GLC (6 h): 171.8 mg/dL
IP (6 h): 9.5 mg/dL
K (6 h): 4.1 meq/L
LDH (6 h): 71.6 IU/L
Na (6 h): 142 meq/L
PL (6 h): 142 mg/dL
RALB (6 h): 2.5 g/dL
TBIL (6 h): 0.03 mg/dL
TC (6 h): 83.6 mg/dL
TG (6 h): 37.4 mg/dL
TP (6 h): 5.2 g/dL
gamma-GTP (6 h): 1.6 IU/L
TERMINAL_BW (9 h): 198.3 g
APTT (9 h): 16.6 s
Bas (9 h): 0%
Eos (9 h): 0.8%
Fbg (9 h): 308.8 mg/dL
Hb (9 h): 13.9 g/dL
Ht (9 h): 42.5%
Lym (9 h): 81.6%
MCH (9 h): 21.1 pg
MCHC (9 h): 32.7%
MCV (9 h): 64.8 fL
Mono (9 h): 2%
Neu (9 h): 15%
PT (9 h): 13.8 s
Plat (9 h): 120.2 x10_4/uL
RBC (9 h): 655.8 x10_4/ul
Ret (9 h): 7.7%
WBC (9 h): 58.8 x10_2/uL
KIDNEY_L (9 h): 0.9 g
KIDNEY_R (9 h): 0.9 g
KIDNEY_TOTAL (9 h): 1.9 g
LIVER (9 h): 7.9 g
A/G (9 h): 1
ALP (9 h): 1678 IU/L
ALT (9 h): 36.8 IU/L
AST (9 h): 70 IU/L
BUN (9 h): 10 mg/dL
CRE (9 h): 0.2 mg/dL
Ca (9 h): 10.6 mg/dL
Cl (9 h): 107.8 meq/L
DBIL (9 h): 0.004 mg/dL
GLC (9 h): 182 mg/dL
IP (9 h): 10.1 mg/dL
K (9 h): 4.3 meq/L
LDH (9 h): 65.6 IU/L
Na (9 h): 142.4 meq/L
PL (9 h): 142 mg/dL
RALB (9 h): 2.6 g/dL
TBIL (9 h): 0.03 mg/dL
TC (9 h): 83 mg/dL
TG (9 h): 47.6 mg/dL
TP (9 h): 5.3 g/dL
gamma-GTP (9 h): 1 IU/L
TERMINAL_BW (24 h): 215.3 g
APTT (24 h): 16 s
Bas (24 h): 0%
Eos (24 h): 1%
Fbg (24 h): 292.8 mg/dL
Hb (24 h): 13.7 g/dL
Ht (24 h): 42.7%
Lym (24 h): 77.6%
MCH (24 h): 21 pg
MCHC (24 h): 32.2%
MCV (24 h): 65.2 fL
Mono (24 h): 2.8%
Neu (24 h): 18.2%
PT (24 h): 13.7 s
Plat (24 h): 140.1 x10_4/uL
RBC (24 h): 654.6 x10_4/ul
Ret (24 h): 7.3%
WBC (24 h): 87.2 x10_2/uL
KIDNEY_L (24 h): 0.9 g
KIDNEY_R (24 h): 0.9 g
KIDNEY_TOTAL (24 h): 1.8 g
LIVER (24 h): 9.8 g
A/G (24 h): 0.9
ALP (24 h): 1542 IU/L
ALT (24 h): 49 IU/L
AST (24 h): 74 IU/L
BUN (24 h): 13.2 mg/dL
CRE (24 h): 0.2 mg/dL
Ca (24 h): 11 mg/dL
Cl (24 h): 106.4 meq/L
DBIL (24 h): 0.01 mg/dL
GLC (24 h): 182.6 mg/dL
IP (24 h): 7.3 mg/dL
K (24 h): 4.1 meq/L
LDH (24 h): 75 IU/L
Na (24 h): 142.2 meq/L
PL (24 h): 153 mg/dL
RALB (24 h): 2.7 g/dL
TBIL (24 h): 0.02 mg/dL
TC (24 h): 83.2 mg/dL
TG (24 h): 82.2 mg/dL
TP (24 h): 5.5 g/dL
gamma-GTP (24 h): 1 IU/L
